Data set [1] has as its system AGS. The data set can be described thus: Cell proliferation inhibition, AGS (CellTiter-Glo 3D, 7 days). The class given is cell-based. To be noted: Homo sapiens, 168 h. On the procedure: • (a) Resuscitating cells in T75 cell culture flask: • (b) When the cell confluence reaches 80-90%, subculturing the cells.
The diluted test compound was added to a 384-well cell culture plate with a nanoliter pipetting system, and duplicate wells were set up. An equal volume of culture medium was added to the positive control group; and an equal volume of DMSO was added to the negative control group, then centrifugation was conducted at 1000 rpm for 1 min at room temperature.
Cells were inoculated into a) 384-well culture plate, with an equal volume of cells added to the negative control group, and only an equal volume of culture medium added to the positive control group. The plate was centrifuged at 1000 rpm for 1 min at room temperature, and the final DMSO concentration of the compound was 0.5% at last. The plate was placed in a 37° C., 5% CO2 constant temperature incubator for 7 days.
20 μL/well of CellTiter-Glo® 3D to b) was added to 384-well cell culture plate, and the plate was shook at 320 rpm for 20 min in the dark, and incubated at room temperature in the dark for 2 hrs.
The luminescence value was read using an Envision multi-functional microplate reader.
The inhibition rate (IR) of the test compound was calculated using the following formula: IR (%)=(1−(RLU compound−RLU blank control)/(RLU meidum control−RLU blank control))*100%. The inhibition rates of different concentrations of compounds were calculated in Excel, and then the inhibition curves were plotted and the related parameters (including the minimum inhibition rate, maximum inhibition rate and IC50) were calculated using GraphPad Prism software.
In general terms: In ATP-based viability assays light output follows the ATP content of the culture.

The test system of data set [2] is GP2D. The data set can be described thus: Cell proliferation inhibition, GP2D (CellTiter-Glo 3D, 7 days). The class given is cell-based. The following applies: 168 h. The essentials: (§1)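 Cells exposed to compound (final DMSO 0.5%) in duplicate for 7 days at 37 °C, 5% CO2, then CellTiter-Glo 3D added with 20 min shaking and 2 h dark incubation before luminescence. Inhibition normalized to medium and blank controls; IC50, minimum and maximum inhibition from curve fits.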

Data set [3] has as its system AsPC-1. The data set can be described thus: Cell proliferation inhibition, AsPC-1 (CellTiter-Glo 3D, 7 days). It is filed as cell-based. To be noted: Homo sapiens, ASPC1, 168 h; AsPC-1, 7 days. An outline of the steps:
as §1

Data set [4] in a line: in vivo. To be noted: male, ICR, mouse, po, 30 mg/kg.
Description: Male ICR mice, weighing 22-24 g, were fasted overnight and orally administered with 30 mg/kg of a solution of the compound of the present invention or the control compound [10% DMSO+60% PEG400+30% aqueous solution]. Blood was collected at 0.25, 0.5, 1.0, 2.0, 4.0, 6.0, 8.0, 12.0 and 24 h after administration of the compound of the present invention respectively, and the concentration of the compound of the present invention or the control compound in plasma was determined by LC/MS/MS.

The results in this text go back to patent US20250206758A1, “SUBSTITUTED BRIDGED RING INHIBITOR, PREPARATION METHOD THEREFOR AND APPLICATION THEREOF” (SUZHOU ZELGEN BIOPHARMACEUTICALS CO., LTD., priority 2022, published 2025).

Where only a bound is given, the exact number is not on record here.

For orientation: IC50 means the midpoint of a concentration-inhibition curve. High values mean weaker potency in that assay, low ones greater potency in that assay. Take `Nc1cc(F)c(Cl)c(-c2ncc3c(N4C[C@H]5CC[C@@H](C4)N5)nc(OC[C@@]45CCCN4C[C@@]4(CC4(F)F)C5)nc3c2F)c1Cl` [Example 37, 3-(4-((1R,5S)-3,8-diazabicyclo[3.2.1]octan-3-yl)-2-(((1S,7a'S)-2,2-difluorodihydro-1′H,3′H-spiro[cyclopropan-1,2′-pyrrolizin]-7a′(5′H)-yl)methoxy)-8-fluoropyridino[4,3-d]pyrimidin-7-yl)-2,4-dichloro-5-fluoroaniline]: the figures for the IC50 in data set [1], in data set [2] and in data set [3] were above 1000 nM, above 100 nM and above 1000 nM, respectively.

In the case of `Nc1cc(Cl)c(C(F)(F)F)c(-c2ncc3c(N4C[C@H]5CC[C@@H](C4)N5)nc(OC[C@@]45CCCN4C[C@@]4(CC4(F)F)C5)nc3c2F)c1Cl` [Example 35, 3-(4-((1R,5S)-3,8-diazabicyclo[3.2.1]octan-3-yl)-2-(((1S,7a′S)-2,2-difluorodihydro-1′H,3′H-spiro[cyclopropan-1,2′-pyrrolizin]-7a′(5′H)-yl)methoxy)-8-fluoropyridino[4,3-d]pyrimidin-7-yl)-2,5-dichloro-4-(trifluoromethyl)aniline], the IC50 in data set [1] came to 79.7 nM; in data set [2], 4.89 nM; in data set [3] it was 45.7 nM.

Consider `Nc1cc(Cl)c(C(F)(F)F)c(-c2ncc3c(N4C[C@H]5CC[C@@H](C4)N5)nc(OC[C@@]45CCCN4C[C@@]4(CC4(F)F)C5)nc3c2F)c1F` [Example 34, 3-(4-((1R,5S)-3,8-diazabicyclo[3.2.1]octan-3-yl)-2-(((1S,7a'S)-2,2-difluorodihydro-1′H,3′H-spiro[cyclopropan-1,2′-pyrrolizin]-7a′(5′H)-yl)methoxy)-8-fluoropyridino[4,3-d]pyrimidin-7-yl)-5-chloro-2-fluoro-4-(trifluoromethyl)aniline], for which the IC50 in data set [1] amounted to 21.5 nM; in data set [2], 1.03 nM; in data set [3] it was 11.1 nM.

The AUC(0-inf) is the area under the concentration-time curve extrapolated to infinity. A low value points to low exposure. The term AUC(0-t) denotes exposure summed from dosing to a finite time, without extrapolation to infinity. The low end stands for less exposure, the high end for more exposure. As usually defined, the Cmax is the highest concentration seen after dosing. A word on the Tmax: it is the time at which the peak concentration occurs. A word on the half-life: it is the time needed for the level to fall by half in the phase considered. A higher half-life goes with slow loss. `Cc1cc(N)c(F)c(-c2ncc3c(N4C[C@H]5CC[C@@H](C4)N5)nc(OC[C@@]45CCCN4C[C@@]4(CC4(F)F)C5)nc3c2F)c1C(F)(F)F` [Example 26, 3-(4-((1R,5S)-3,8-diazabicyclo[3.2.1]octan-3-yl)-2-(((1S,7a'S)-2,2-difluorodihydro-1′H,3′H-spiro[cyclopropan-1,2′-pyrrolizin]-7a′(5′H)-yl)methoxy)-8-fluoropyridino[4,3-d]pyrimidin-7-yl)-2-fluoro-5-methyl-4-(trifluoromethyl)aniline]: in data set [4], the AUC(0-inf) is 3.77 µg·h/mL, the AUC(0-t) is 3.38 µg·h/mL, the peak level (Cmax) was 0.462 µg/mL and the Tmax worked out at 0.25 h. The compound also gave a half-life in data set [4] of 6.97 h.

Regarding `Nc1cc(F)c(C(F)(F)F)c(-c2ncc3c(N4C[C@H]5CC[C@@H](C4)N5)nc(OC[C@@]45CCCN4C[C@@]4(CC4(F)F)C5)nc3c2F)c1Cl` [Example 36, 3-(4-((1R,5S)-3,8-diazabicyclo[3.2.1]octan-3-yl)-2-(((1S,7a'S)-2,2-difluorodihydro-1′H,3′H-spiro[cyclopropan-1,2′-pyrrolizin]-7a′(5′H)-yl)methoxy)-8-fluoropyridino[4,3-d]pyrimidin-7-yl)-2-chloro-5-fluoro-4-(trifluoromethyl)aniline], the IC50 in data set [1] worked out at 298 nM; in data set [2] it was 20.4 nM; in data set [3], 167 nM.

With `N#Cc1c(N)sc2c(F)ccc(-c3ncc4c(N5CC6CCC(C5)N6)nc(OC[C@@]56CCCN5C[C@@]5(CC5(F)F)C6)nc4c3F)c12` [Example 24], in data set [4], the AUC(0-inf) amounted to 1.27 µg·h/mL, the AUC(0-t) is 1.25 µg·h/mL, the concentration peaked (Cmax) at 0.461 µg/mL and the Tmax turned out to be 0.5 h. Further, the half-life in data set [4] is 4.74 h. Besides, in data set [2], the IC50 came to 2.5 nM. In data set [3], this compound returned a half-inhibitory concentration (IC50) of 62 nM.

Consider `Nc1cc(-c2ncc3c(N4C[C@H]5CC[C@@H](C4)N5)nc(OC[C@@]45CCCN4C[C@@]4(CC4(F)F)C5)nc3c2F)c(C(F)(F)F)c(Cl)c1F` [Example 41, 5-(4-((1R,5S)-3,8-diazabicyclo[3.2.1]octan-3-yl)-2-(((1S,7a'S)-2,2-difluorodihydro-1′H,3′H-spiro[cyclopropan-1,2′-pyrrolizin]-7a′(5′H)-yl)methoxy)-8-fluoropyridino[4,3-d]pyrimidin-7-yl)-3-chloro-2-fluoro-4-(trifluoromethyl)aniline], for which the IC50 in data set [1] is 16.6 nM; in data set [2], 1.41 nM; in data set [3], 14.2 nM.

Consider `Cc1c(F)c(N)cc(-c2ncc3c(N4C[C@H]5CC[C@@H](C4)N5)nc(OC[C@@]45CCCN4C[C@@]4(CC4(F)F)C5)nc3c2F)c1C(F)(F)F` [Example 42, 5-(4-((1R,5S)-3,8-diazabicyclo[3.2.1]octan-3-yl)-2-(((1S,7a'S)-2,2-difluorodihydro-1′H,3′H-spiro[cyclopropan-1,2′-pyrrolizin]-7a′(5′H)-yl)methoxy)-8-fluoropyridino[4,3-d]pyrimidin-7-yl)-2-fluoro-3-methyl-4-(trifluoromethyl)aniline], for which the results for the IC50 in data set [1], in data set [2] and in data set [3] were 13.9 nM, 0.68 nM and 8.83 nM, respectively.

As to `C#Cc1c(F)ccc2cc(O)cc(-c3ncc4c(N5C[C@H]6CC[C@@H](C5)N6)nc(OC[C@@]56CCCN5C[C@@]5(CC5(F)F)C6)nc4c3F)c12` [Example 16B-1, 4-(4-((1R,5S)-3,8-diazabicyclo[3.2.1]octan-3-yl)-2-(((1S,7a'S)-2,2-difluorodihydro-1′H,3′H-spiro[cyclopropan-1,2′-pyrrolizin]-7a′(5′H)-yl)methoxy)-8-fluoropyridino[4,3-d]pyrimidin-7-yl)-5-ethynyl-6-fluoronaphthalen-2-ol], the IC50 in data set [1] was found to be 1.37 nM; in data set [2], 0.2 nM; in data set [3], 1.24 nM.

As to `Cc1c(N)cnc(C(F)(F)F)c1-c1ncc2c(N3C[C@H]4CC[C@@H](C3)N4)nc(OC[C@@]34CCCN3C[C@@]3(CC3(F)F)C4)nc2c1F` [Example 54, 5-(4-((1R,5S)-3,8-diazabicyclo[3.2.1]octan-3-yl)-2-(((1S,7a'S)-2,2-difluorodihydro-1′H,3′H-spiro[cyclopropan-1,2′-pyrrolizin]-7a′(5′H)-yl)methoxy)-8-fluoropyridino[4,3-d]pyrimidin-7-yl)-4-methyl-6-(trifluoromethyl)pyridin-3-amine], the results for the IC50 in data set [1], in data set [2] and in data set [3] were above 1000 nM, above 100 nM and above 1000 nM, respectively.

Consider `C#Cc1c(F)ccc2cc(O)cc(-c3ncc4c(N5C[C@H]6CC[C@@H](C5)N6)nc(OC[C@]56C[C@@H](F)CN5C[C@@]5(CC5(F)F)C6)nc4c3F)c12` [Example 15A, 4-(4-((1R,5S)-3,8-diazabicyclo[3.2.1]octan-3-yl)-8-fluoro-2-(((1S,6′R,7a'S)-2,2,6′-trifluorodihydro-1′H,3′H-spiro[cyclopropan-1,2′-pyrrolizin]-7a′(5′H)-yl)methoxy)pyridino[4,3-d]pyrimidin-7-yl)-5-ethynyl-6-fluoronaphthalen-2-ol], for which the IC50 is 13.1 nM in data set [2] and 108 nM in data set [3].

For the compound `N#Cc1cc(N)cc(-c2ncc3c(N4C[C@H]5CC[C@@H](C4)N5)nc(OC[C@@]45CCCN4C[C@@]4(CC4(F)F)C5)nc3c2F)c1C(F)(F)F` [Example 43, 3-(4-((1R,5S)-3,8-diazabicyclo[3.2.1]octan-3-yl)-2-(((1S,7a'S)-2,2-difluorodihydro-1′H,3′H-spiro[cyclopropan-1,2′-pyrrolizin]-7a′(5′H)-yl)methoxy)-8-fluoropyridino[4,3-d]pyrimidin-7-yl)-5-amino-2-(trifluoromethyl)benzonitrile], the IC50 worked out at 4.17 nM in data set [2] and 115 nM in data set [3].
